Patent US9522120B2, “Compositions and methods of making sustained release liquid formulations” (NEOS THERAPEUTICS, LP, priority 2005, dated 2016)

What was measured:
[1] = Dissolution of phenylephrine sustained release coated beads; type: physicochemical; details: when combined with Gauifenesin DC
Protocol: Due to this effect the testing of the dissolution rate is achieved by first making a mock-up of the finished product. By doing so the suitability of the phenylephrine beads was determined more accurately. Direct specifications for dissolution were determined once data was collected to accurately predict this rate change.

[2] = water and alcohol; cited from earlier work

| dissolution rate [1] | SMILES | solubility [2] |
| --- | --- | --- |
| accelerated | CNC[C@H](O)c1cccc(O)c1 [phenylephrine] | – |
| – | COc1ccccc1OCC(O)CO (centres unmarked) [Guaifenesin, 3(2-methoxyphenoxy)-1,2-propanediol] | soluble in water and alcohol |
